Measurements from patent US7872133B2, “Tricyclic heterocycle compound” (Ono Pharmaceutical Co., Ltd., priority 2003, dated 2011).

How the values were obtained:
MBR = target: T1, MBR (Rattus norvegicus, UniProt P16257); assay: Receptor Binding Experiment (competition with [3H]PK11195); settings: rat brain membrane preparation, [3H]PK11195 as MBR selective ligand; Ki by Cheng and Prusoff formula
T1 construct: from tissue; host or cells: whole brain without cerebellum of male Wistar rats, crude membrane preparation
Method: The affinity of the compounds in the present invention to MBR was determined using rat brain membrane preparation. In addition, the measurement in the present invention was improved the accuracy of measurement and the sensitivity of measurement for evaluating the compounds in the present invention as follows. After male Wister rats were decapitated to extirpate the whole brain and cerebellums were removed. They were homogenized in ice-cold 50 mmol/L Tris-HCL buffer solution (pH7.4), centrifuged and the obtained pellets were washed. The pellets resuspended and adjusted to about 1 mg/mL were used as rat brain membrane preparations for binding assay. The binding assay were experimented using [^3H]PK11195 as a MBR selective ligand. […]
To determine the amount of total binding in saturation binding experiment, membrane preparations, various concentrations of [^3H]PK11195, final concentration: 0.5 vol % dimethylsulfoxide (DMSO) and 50 mmol/L Tris-HCL buffer solution (pH7.4) were mixed (total volume 200 μL) and were incubated for 1 hour at room temperature. […] The filter was dried and then the radioactivity on the filter was measured by liquid scintillation counter. The data obtained by the binding experiments were Scatchard-analyzed using analysis software, KELL (Ver. 6, BIOSOFT) and the dissociation constant (KD value) was determined. […]

male Wistar rats = assay: Evaluation of Anti-Stress Effects (psychological stress, number of defecation); type: in vivo, rat; settings: 10 mg/kg orally 30 minutes before stressor; counted 1 hour later; media treated group average 8.0 feces
Method: Psychological stress was loaded to male Wistar rats (Brain Research, 641, 21-28, 1994). Water was stored up to the depth of about 10 cm in a container where the platform was set at the center. A stressor began to load to rats 30 minutes after the vehicle or the compound in the present invention (the compound of Example 17) were orally administered by dosage of 10 mg/kg. The number of defecation was counted 1 hour later (10 per each group). Rats without administration and load of stressor rarely defecated for 1 hour. In contrast, remarkable defecation was admitted in media treated group (average 8.0 feces) loaded by stressor. […] The results clarified that the compounds in the present invention had anti-stress effects.

Ki (MBR): 21 nM
SMILES: CC(=O)N1CC2(CC2)c2c([nH]c3ccccc23)C1c1cccc(F)c1 (stereo not drawn) [Example 17, 2-acetyl-1-(3-fluorophenyl)-1,2,3,9-tetrahydrospiro[β-carboline-4,1′-cyclopropane]]
number of defecation (average) (male Wistar rats): 5.4 feces
